# Assay results as given in US20240148821A1, “PHARMACEUTICAL USE OF CYCLIC PEPTIDE COMPOUND” (CHUGAI SEIYAKU KABUSHIKI KAISHA, priority 2021, published 2024).
# Numbered stars: 1 amine (or outer) side, 2 acyl side, 3 side chain; on linkers, the order of the positions; unused ones are H or OH. Bridge positions count the residues as written; N and C are the ends. Square brackets hold non-standard residues; d marks the D form. Peptide text beside a SMILES is read from it. * marks the point of attachment. hPhe(3-Cl-4-CF3) = N[C@@H](CCc1ccc(C(F)(F)F)c(Cl)c1)C(=O)O; hPhe(3-F,4-CF3) = N[C@@H](CCc1ccc(C(F)(F)F)c(F)c1)C(=O)O; X126 = O=C([C@H](Cc1cc(F)cc(I)c1)N[*:1])[*:2]; NMePhe(4-Cl) = CN[C@@H](Cc1ccc(Cl)cc1)C(=O)O; NMePhe(4-Me) = CN[C@@H](Cc1ccc(C)cc1)C(=O)O; NMeNva(5,5-F2) = CN[C@@H](CCC(F)F)C(=O)O; NMeGly(cPent) = CN[C@H](C(=O)O)C1CCCC1; Phe(3-I) = N[C@@H](Cc1cccc(I)c1)C(=O)O; Met(O2) = CS(=O)(=O)CC[C@H](N)C(=O)O; NMeY = CN[C@@H](Cc1ccc(O)cc1)C(=O)O; NMeCha = CN[C@@H](CC1CCCCC1)C(=O)O; NMeChg = CN[C@H](C(=O)O)C1CCCCC1; NMeF = CN[C@@H](Cc1ccccc1)C(=O)O; NMeI = CC[C@H](C)[C@H](NC)C(=O)O; NMeD = CN[C@@H](CC(=O)O)C(=O)O; NMeL = CN[C@@H](CC(C)C)C(=O)O; NMeV = CN[C@H](C(=O)O)C(C)C; d(β3hA) = C[C@@H](N)CC(=O)O; NMeAbu = CC[C@H](NC)C(=O)O; NMeA = CN[C@@H](C)C(=O)O; NMeAib = CNC(C)(C)C(=O)O; Nle = CCCC[C@H](N)C(=O)O; Piperidide = C1CCN(*)CC1; dNMeA = CN[C@H](C)C(=O)O; Ac5c = NC1(C(=O)O)CCCC1; Aze = O=C(O)[C@@H]1CCN1; NcPrGly = O=C(O)CNC1CC1; Sar = CNCC(=O)O
# Test system: Human pancreatic cancer cell line AsPC-1 (G12D mutation Kras)
# Experiment: AsPC-1 cell growth inhibition (AsPC-1 CGI)
# Assay type: cell-based
# Conditions: read-out: AsPC-1 cell growth inhibition, 50% growth inhibitory concentration (IC50 value); 96 hours, CellTiter-Glo, values classified in ranges
# Procedure: Test compounds were serially dilated with dimethyl sulfoxide, and 200 nL was then dispensed to a U-bottom 96-well plate using Labcyte Echo. […] The cell suspension was dispensed to a. plate containing a test compound at 100 μL per well and incubated at 37° C. in a 5% carbon dioxide gas incubator. 96 hours later, 80 μL of CellTiter-Glo (Promega) was added to each well and fluorescence was measured.
row,Compound,IC50 [nM]
1,"CC[C@H](C)[C@@H]1NC(=O)[C@H](CC(C)C)N(C)C(=O)C[C@@H](C)NC(=O)[C@H](CC)N(C)C(=O)C2(CCCC2)NC(=O)[C@@H]2CCCN2C(=O)[C@H](CCc2ccc(C(F)(F)F)c(F)c2)NC(=O)CN(C)C(=O)[C@H](CC2CCCCC2)N(C)C(=O)CN(C)C(=O)CN(C)C1=O [Compound 1469] (cyclo([Ac5c][NMeAbu][d(β3hA)][NMeL]I[Sar][Sar][NMeCha][Sar][hPhe(3-F,4-CF3)]P))",> 500
2,CCCC[C@@H]1NC(=O)[C@H](Cc2cc(F)cc(I)c2)NC(=O)CN(C)C(=O)[C@H](Cc2ccc(OC)cc2)N(C)C(=O)[C@@H]2CCN2C(=O)[C@H](C)N(C)C(=O)[C@H]([C@@H](C)CC)NC(=O)[C@H](CC)N(C)C(=O)C[C@@H](C(=O)N2CCCCC2)N(C)C(=O)[C@H](CC(C)C)NC(=O)C(C)(C)N(C)C1=O [Compound 1226] ([NMeAbu]I[NMeA][Aze][NMeY](Me)[Sar][X126][Nle][NMeAib]L[NMeD]-Piperidide; lactam N-11),> 500
3,CC[C@H](C)[C@@H]1NC(=O)[C@H](CC(C)C)N(C)C(=O)C[C@@H](C)NC(=O)[C@H](C(C)C)N(C)C(=O)C2(CCCC2)NC(=O)[C@@H]2CCCN2C(=O)[C@H](CCc2ccc(C(F)(F)F)c(Cl)c2)NC(=O)CN(C)C(=O)[C@H](CC2CCCCC2)N(C)C(=O)CN(C)C(=O)CN(C2CC2)C1=O [Compound 542] (cyclo([Ac5c][NMeV][d(β3hA)][NMeL]I[NcPrGly][Sar][NMeCha][Sar][hPhe(3-Cl-4-CF3)]P)),> 500
4,"CC[C@H](C)[C@@H]1NC(=O)[C@H](CC(C)C)N(C)C(=O)C[C@@H](C(=O)N(C)C)N(C)C(=O)[C@H]([C@@H](C)CC)N(C)C(=O)C2(CCCC2)NC(=O)[C@H](CCC(F)F)N(C)C(=O)[C@H](CCc2ccc(C(F)(F)F)c(Cl)c2)NC(=O)CN(C)C(=O)[C@H](Cc2ccc(C)cc2)N(C)C(=O)[C@@H]2CCN2C(=O)[C@H](C)N(C)C1=O [Compound 1898] ([NMeL]I[NMeA][Aze][NMePhe(4-Me)][Sar][hPhe(3-Cl-4-CF3)][NMeNva(5,5-F2)][Ac5c][NMeI][NMeD]-NMe2; lactam N-11)",≤ 20
5,CC[C@H](C)[C@@H]1NC(=O)[C@H](C)N(C)C(=O)C[C@@H](C)NC(=O)[C@H](C2CCCC2)N(C)C(=O)C2(CCCC2)NC(=O)[C@@H]2CCCN2C(=O)[C@H](CCc2ccc(C(F)(F)F)c(Cl)c2)NC(=O)CN(C)C(=O)[C@H](Cc2ccc(Cl)cc2)N(C)C(=O)[C@@H]2CCCN2C(=O)CN(C)C1=O [Compound 549] (cyclo([Ac5c][NMeGly(cPent)][d(β3hA)][NMeA]I[Sar]P[NMePhe(4-Cl)][Sar][hPhe(3-Cl-4-CF3)]P)),> 500
6,CC[C@H](C)[C@@H]1NC(=O)[C@H](C)N(C)C(=O)C[C@@H](C(=O)N2CCCCC2)N(C)C(=O)[C@H](C(C)C)N(C)C(=O)C2(CCCC2)NC(=O)[C@@H]2CCCN2C(=O)[C@H](CCc2ccc(C(F)(F)F)c(Cl)c2)NC(=O)[C@@H](C)N(C)C(=O)[C@H](Cc2ccccc2)N(C)C(=O)CN(C)C(=O)CN(C)C1=O [Compound 1844] ([NMeA]I[Sar][Sar][NMeF][dNMeA][hPhe(3-Cl-4-CF3)]P[Ac5c][NMeV][NMeD]-Piperidide; lactam N-11),> 500
7,CC[C@H](C)[C@@H]1NC(=O)[C@H](C)N(C)C(=O)C[C@@H](C)NC(=O)[C@H](C2CCCC2)N(C)C(=O)C2(CCCC2)NC(=O)[C@@H]2CCCN2C(=O)[C@H](CCc2ccc(C(F)(F)F)c(Cl)c2)NC(=O)CN(C)C(=O)[C@H](CC2CCCCC2)N(C)C(=O)CN(C)C(=O)CN(C)C1=O [Compound 1478] (cyclo([Ac5c][NMeGly(cPent)][d(β3hA)][NMeA]I[Sar][Sar][NMeCha][Sar][hPhe(3-Cl-4-CF3)]P)),> 500
8,CC[C@H](C)[C@@H]1NC(=O)[C@H](CC(C)C)N(C)C(=O)C[C@@H](C(=O)N2CCCCC2)N(C)C(=O)[C@H](CC(C)C)NC(=O)[C@H](Cc2ccccc2)N(C)C(=O)[C@H](C)NC(=O)[C@H](Cc2cccc(I)c2)NC(=O)CN(C)C(=O)[C@H](Cc2ccc(C)cc2)N(C)C(=O)CN(C)C(=O)CN(C)C1=O [Compound 619] ([NMeL]I[Sar][Sar][NMePhe(4-Me)][Sar][Phe(3-I)]A[NMeF]L[NMeD]-Piperidide; lactam N-11),> 500
9,CC(C)C[C@H]1C(=O)N[C@@H](CCS(C)(=O)=O)C(=O)N(C)CC(=O)N(C)CC(=O)N(C)[C@@H](CC2CCCCC2)C(=O)N(C)CC(=O)N[C@@H](CCc2ccc(C(F)(F)F)c(Cl)c2)C(=O)N2CCC[C@H]2C(=O)NC2(CCCC2)C(=O)N(C)[C@@H](C2CCCCC2)C(=O)N(C)[C@H](C(=O)N2CCCCC2)CC(=O)N1C [Compound 283] ([NMeL][Met(O2)][Sar][Sar][NMeCha][Sar][hPhe(3-Cl-4-CF3)]P[Ac5c][NMeChg][NMeD]-Piperidide; lactam N-11),> 500
10,CC(C)C[C@@H]1NC(=O)[C@H](CC(C)C)N(C)C(=O)C[C@@H](C(=O)N2CCCCC2)N(C)C(=O)[C@H](C(C)C)N(C)C(=O)C2(CCCC2)NC(=O)[C@@H]2CCCN2C(=O)[C@H](CCc2ccc(C(F)(F)F)c(Cl)c2)NC(=O)CN(C)C(=O)[C@H](CC2CCCCC2)N(C)C(=O)[C@@H]2CCN2C(=O)[C@H](C)N(C)C1=O [Compound 1754] ([NMeL]L[NMeA][Aze][NMeCha][Sar][hPhe(3-Cl-4-CF3)]P[Ac5c][NMeV][NMeD]-Piperidide; lactam N-11),> 500
